We go through 1 compound from US4342762A, “Basic ethers and pharmaceutical compositions containing the same” (Egyt Gyogyszervegyeszeti Gyar, priority 1979, dated 1982).

The structures appear in SMILES notation.

A short description of data set [1]: acute oral toxicity, graphic method of Litchfield-Wilcoxon, 4 days observation. As to conditions: mouse, in vivo; oral, 20 ml/kg, both sexes 18-24 g, 4 days observation. The protocol: The analgesic effect of the new compounds according to the invention was determined by the method of Wirth et al. (Wirth, W., Gosswald, R., Horlein. K., Risse, Kl. H., Kreiskott, H.: Arch. Int. Pharmacodyn. 115, 1; (1958)). 0.4 ml of 0.5% acetic acid was administered i.p. to white mice, and the characteristic "writhing" reactions were counted after 5 minutes. […] The results are given in Table I. The toxicity data determined on white mice of both sexes weighing 18-24 g belonging to the strain CFLP are also given. Administration was effected with an oral dose of 20 ml/kg. After treatment the animals were kept under observation for 4 days. The toxicity data (LD50 mg/kg) were determined by the graphic method of Litchfield-Wilcoxon [Litchfield, J.T., Wilcoxon, E. W., J Pharmacol. Exp. Therap. 96, 99; (1949)].

Data set [2] has as its system white mice. The data set can be described thus: analgesic effect, inhibition of acetic acid "writhing" reactions (Wirth et al.). The format is in vivo. The protocol:
The analgesic effect of the new compounds according to the invention was determined by the method of Wirth et al. (Wirth, W., Gosswald, R., Horlein. K., Risse, Kl. H., Kreiskott, H.: Arch. Int. Pharmacodyn. 115, 1; (1958)). 0.4 ml of 0.5% acetic acid was administered i.p. to white mice, and the characteristic "writhing" reactions were counted after 5 minutes. The compounds to be tested had been orally administered an hour before the administration of the acetic acid. The activity is expressed as a percentage of the inhibition referred to the data observed on the control group. The results are given in Table I. The toxicity data determined on white mice of both sexes weighing 18-24 g belonging to the strain CFLP are also given. Administration was effected with an oral dose of 20 ml/kg. After treatment the animals were kept under observation for 4 days. The toxicity data (LD50 mg/kg) were determined by the graphic method of Litchfield-Wilcoxon [Litchfield, J.T., Wilcoxon, E. W., J Pharmacol. Exp. Therap. 96, 99; (1949)].
(An intraperitoneal irritant provokes the stretching counted in writhing tests.)

Data set [3] has as its system white mice. The data set can be described thus: inhibition of maximal electroshock (MES) (Swinyard et al.). The format is in vivo. As for the experimental part:
(§1) The antiepileptic effect was investigated on white mice, after oral administration. The inhibition of maximal electroshock (MES) was determined by the method of Swinyard et al. [Swinyard et al. J. Pharmacol. Exp. Ther. 106, 319-330 (1952)]. White mice weighing 20-25 g were subjected to electric shock through corneal electrodes (Parameters: 50 Hz, 45 mA, 0.4 sec.). The total inhibition of the tonic extensor convulsion was considered as criterion of the anti-convulsive effect. The test-substance had been orally administered one hour before the electroshock. The inhibition of pentetrazole convulsion was determined on white mice by the modified method of Banziger and Hane [Banziger, R., Hane, L.D. Arch. Int. Pharmacodyn. 167, 245-249; (1967)]. I." stands for "therapeutic index."
For orientation: In the maximal electroshock model the usual endpoint is tonic extension of the hind limbs.

Data set [4] relates to white mice. Put plainly: inhibition of pentetrazole convulsion (modified Banziger and Hane). The format is in vivo. The protocol: as §1
For data set [5], the system named is white mice. Put plainly: inhibition of nicotine-lethality (Stone). The format is in vivo. As for the experimental part: The inhibition of nicotine-lethality was determined on white mice by the method of Stone [Stone, C. A., Mecklenburg, K. L., Torchiana, M. L., Arch. Int. Pharmacodyn.
The subject of data set [6] is white mice. The data set can be described thus: inhibition of motility, Dews apparatus (Borsy). It counts as in vivo. As for the experimental part: (§2) The effect on the inhibition of the oriental activity (inhibition of the motility) was investigated on white mice in a Dews apparatus applied with 8 canals by the method of Borsy [Borsy, J., Csanyi, E., Lazar, I., Arc. Int. Pharmacodyn. 124, 1-2 (1960)]. After an oral pretreatment of 30 minutes the number of light-interruptions due to the movements of groups consisting of 3-3 mice was registered. The observation lasted for 30 minutes. The effect of the compounds exerted on the duration of hexobarbital-narcosis was tested by the method of Kaergaard [Kaergaard, N. C., Magnussen, M. P., Kampmann, E., Frey, H. H., Arc. Int. Pharmacodyn. 2, 170; (1967)]. Groups of animals consisting of 6-6 mice were treated.

The test system of the next data set is mice. The data set can be described thus: potentiating of hexobarbital-narcosis (Kaergaard). It counts as in vivo. As for the experimental part:
as §2

Consider `CCN(CC)CCOC1(Cc2ccccc2)CC2CCC1(C)C2(C)C` (single isomer, unassigned) [Example 8, D-(+)-2-benzyl-2-(2'-diethylaminoethoxy)-1,7,7-trimethyl-bicyclo(2,2,1)heptane], for which the LD50 at 96 h in data set [1] amounted to 850 mg/kg. In addition, the ED50 in the data set on white mice [2] (Mus musculus, po, read-out: Analgesic effect ED50) was determined as 45 mg/kg; with white mice [3] (Mus musculus, oral, 1 hour before electroshock 50 Hz, 45 mA, 0.4 sec, total inhibition of tonic extensor convulsion), 30 mg/kg; in the data set on white mice [4] (Mus musculus, oral), 20 mg/kg; in the data set on white mice [5] (Mus musculus, oral, 1 hour before 1.4 mg/kg nicotine), 11 mg/kg; with white mice [6] (Mus musculus, oral pretreatment 30 minutes, observation 30 minutes), 60 mg/kg; in the data set with mice (Mus musculus, iv, 40 mg/kg hexobarbital i.v., positive: sleeping period at least 2.5 times control) it was 60 mg/kg. The “Analgesic effect Therap.index” value with white mice [2] (therapeutic index, analgesic effect) was 18.9. In addition, in the data set with white mice [3] (therapeutic index, MES), the “Inhibition of MES Th. I.” value is 28.3. Further, the “Inhibition of pentetrazole convulsion Th. I.” value in the data set with white mice [4] (therapeutic index, pentetrazole convulsion) was determined as 42.5. Further, the “Inhibition of nicotine-lethality Therapeutic index” value in the data set with white mice [5] (therapeutic index, nicotine-lethality) is on record as 77.3. Moreover, the “Inhibition of motility Th.I.” value in the data set with white mice [6] (therapeutic index, motility) worked out at 14.2. Moreover, the “Potentiating of narcosis Th.I.” value in the data set with mice (therapeutic index, narcosis) came out at 14.2.

One may read the LD50 as the dose at which mortality reaches 50%. Broadly, the ED50 is the dose that gives a 50% effect, or the effect in half of the subjects.
